These results are taken from patent publication US20240189315A1, “Cyclic Pyridine Derivatives as cGAS Inhibitors” (Boehringer Ingelheim International GmbH, priority 2022, published 2024).

Where two headings read alike, the source gives them in different places.

In test [1] the target is cellular cGAS activity in dsDNA-stimulated human whole blood (Homo sapiens (Human), UniProt Q8N884). Briefly: Human whole blood assay (hWB IC50): IFNα2a production after dsDNA transfection.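 Further: IFNα-2a in plasma measured by MSD electrochemiluminescence immunoassay after 22 h at 37 °C, 8-point dilution series from 10 µM top concentration, DMSO wells as controls.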 The format is cell-based.
Description: 6.3 Method: Human Whole Blood Assay (Human WB IC50) For the detection of cellular cGAS activity human whole blood was stimulated by transfection with double stranded DNA. Pathway activity was monitored by measuring the IFNα2α production.
Compounds were delivered as 10 mM DMSO solution and serially diluted and transferred to the 96-well cell culture plate (Corning #3595), prefilled with 20 μl OptiMEM (Gibco, #11058-021) in each well, using an Echo acoustic dispenser. Typically, 8 concentrations were used with the highest concentration at 10 μM in the final assay volume followed by ˜1:5 dilution steps. DMSO concentration was set to 0.1% in the final assay volume. The 96-well assay plate contained 10 test compounds, and DMSO in control wells.
Collection of human whole blood from 3 or more healthy donors (male or female, no medication for 7 days except contraceptive and thyroxine) as Na-Citrate blood (e.g. 3.8% in Monovettes from Sarstedt) was conducted in parallel. Whole blood was kept at room temperature for a maximum of 3 hours after collection until use in the assay.
160 μl of the whole blood samples was transferred to each well of the 96-well assay plates filled with compound/OptiMEM. All assay plates were prepared as duplicates with blood from different donors. Blood plates were kept at room temperature for 60 minutes and continuous shaking with 450 rpm, covered with the lid, but not sealed.
20 μl OptiMEM and 9.6:1 Fugene was added to all low control wells.
After covering assay plates with area seals and the lid, blood plates were kept at room temperature for 30 minutes and continuous shaking with 450 rpm, followed by an overnight incubation of 22 h at 37° C. in the incubator, without shaking.
For the detection of IFNα-2a in human plasma, the biotinylated capture antibody (Antibody set IFNA2, Meso Scale Diagnostics #B21VH-3, including coating and capture antibody) was diluted 1:17.5 in Diluent 100 (Meso Scale Diagnostics #R50AA-4), according to the manufacturer's directions. U-Plex MSD GOLD 96-well Small Spot Strepavidin SECTOR Plates (Meso Scale Diagnostics #L45SA-5) were coated with 25 μl diluted capture antibody. Coated plates were incubated for 60 min at room temperature under continuous shaking at 700 rpm. MSD IFNα-2a plates were washed three times with 150 μl wash buffer (1×HBSS, 0.05% Tween).
After blocking the plates with 100 μl block solution/well (1×HBSS with 0.2% Tween, 2% BSA) for 60 min at room temperature and continuous shaking at 700 rpm, plates were emptied as dry as possible by dumping just before continuing with the human plasma.
Whole Blood assay plates were centrifuged at 1600 rpm for 10 minutes. 25 μl of supernatant was transferred with a pipetting robot from each whole blood plate to the corresponding IFNα-2a plate.
Plates were sealed with microplate seals and kept at room temperature again under continuous shaking at 700 rpm for two hours.
Next MSD IFNα-2a plates were washed three times with 150 μl wash buffer (1×HBSS, 0.05% Tween), before adding 25 μl MSD SULFO-TAG IFNα-2a Antibody solution (1:100 diluted in Diluent 3 (Meso Scale Diagnostics #R50AP-2) to each well of the plates.
Afterwards plates were sealed with microplate seals and kept at room temperature again under continuous shaking at 700 rpm for two hours. Finally, MSD IFNα-2a plates were washed three times with 150 μl wash buffer (1×HBSS, 0.05% Tween). 150 μl 2× Read buffer was added to each well and plates were immediately measured with the MSD Sector S600 Reader using the vendor barcode.
For data evaluation and calculation,% control calculation of each well was based on the mean of high (DNA stimulated control) and mean of low (unstimulated control) controls by using the following formula:
The IC50-values were calculated using the standard 4 parameter logistic regression formula.
In test [2] the target is cellular cGAS activity in baculovirus-stimulated THP1-Dual cells (Homo sapiens (Human), UniProt Q8N884). The test is described as follows: Human cGAS cell assay (THP1(vir) IC50): IFN induction in virus-stimulated THP1-Dual cells, IRF Lucia luciferase reporter.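 Further: Eight-point dilution series starting at 10 µM, 1% DMSO, 18 h at 37 °C, luminescence read-out, virus-free wells as 0% and DMSO-treated virus-stimulated wells as 100%.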 The format is cell-based.
The test system of test [3] is pathway directly downstream of cGAS in cGAMP-stimulated THP1-Dual cells. The test is described as follows: cGAMP stimulated counter cell assay (THP1(cGAMP) IC50): IFN induction in cGAMP-stimulated THP1-Dual cells. The format is cell-based, human. To be noted: for IC50: Homo sapiens, THP1-Dual; for Ratio THP(cGAMP) IC50/ THP(vir) IC50: selectivity for cGAS inhibition. The source says: 6.2 Method: Human cGAS Cell Assay and cGAMP Stimulated Counter Cell Assay (THP1(vir) IC50 and THP1(cGAMP) IC50)
THP1-Dual™ cells (InvivoGen #thpd-nfis) expressing IRF dependent Lucia luciferase reporter were used as basis for both assays. For the detection of cellular cGAS activity cells were stimulated by a baculovirus (pFastbac-1, Invitrogen, no coding insert) infection that delivers the cGAS enzyme stimulating double-stranded DNA (measurement of THP1(vir) IC50).
For the counter assay, cells were stimulated by cGAMP (SigmaAldrich #SML1232) to activate the identical pathway independent and directly downstream of cGAS (measurement of THP1(cGAMP) IC50). Pathway activity was monitored by measuring the Lucia luciferase activity induced by either DNA stimulated cGAS enzyme activity (measurement of THP1(vir) IC50) or by cGAMP directly (measurement of THP1(cGAMP) IC50, counter assay).
Compounds were delivered in 10 mM DMSO solution, serially diluted and transferred to the 384 well assay plate (Greiner #781201) using an Echo acoustic dispenser. Typically, 8 concentrations were used with the highest concentration at 10 μM in the final assay volume followed by ˜1:5 dilution steps. DMSO concentration was set to 1% in the final assay volume. The 384 well assay plate contained 21 test compounds (column 1-22), and DMSO in column 23 and 24.
Cells, cultivated according to manufacturer conditions, were harvested by centrifugation at 300 g/10 min and were then resuspended and diluted to 1.66E5 cells/ml in fresh cell culture medium (RPMI 1640 (Gibco #A10491-01), 10% FCS (Gibco #10500), 1× GlutaMax (Gibco #35050-061), 1× Pen/Strep solution (Gibco #15140-122), 100 μg/ml Normocin (InvivoGen #ant-nr), 100 μg/ml Zeocin (InvivoGen #ant-zn), 10 μg/ml Blasticidin S (Life Technologies #A11139-03)). The baculovirus solution was then added 1:200 (have varied according to virus batch) to the cells (measurement of THP1(vir) IC50). […] 30 μL of the cell/virus-mix were added to each well of the compound plate from column 1-23 via MultiDrop Combi dispenser (5000 cells/well). In column 24, 30 μl/5000 cells/well without virus were added as a low control.
The plates were then incubated for 18 h at 37° C. in a humidified incubator.
Following that, 15 μL of QuantiLuc detection reagent (InvivoGen #rep-qlcg5) were added to each well using a MultiDrop Combi. Measurement was done immediately after the addition using an EnVision reader (US-luminescence read-mode).
Data Evaluation and Calculation:
For data evaluation and calculation, the measurement of the low control was set as 0% control and the measurement of the high control was set as 100% control. The IC50 values were calculated using the standard 4 parameter logistic regression formula. Calculation: [y=(a−d)/(1+(x/c)^b)+d], a=low value, d=high value; x=conc M; c=IC50 M; b=slope

In test [4] the target is Human cGAS enzyme (Homo sapiens (Human), UniProt Q8N884). Briefly: Human cGAS enzyme assay (hcGAS IC50, in vitro), cGAMP formation by RapidFire MS.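 Further: recombinant human cGAS activated by 45 bp dsDNA with 30 µM each ATP and GTP, 90 min, cGAMP vs cyclic-di-GMP standard by MS, 8-point titration from 10 µM.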 The format is biochemical.
Where [5] appears, read: Table 1, dsDNA-stimulated human whole blood.
The mark [6] stands for this setting: Table 1, virus-stimulated THP1 cells, read-out: THP(vir) IC50.
[7] abbreviates: Table 1, cGAMP-stimulated THP1 cells, read-out: THP(cGAMP) IC50.

Human cGAS enzyme, sequence (Q8N884 whole entry): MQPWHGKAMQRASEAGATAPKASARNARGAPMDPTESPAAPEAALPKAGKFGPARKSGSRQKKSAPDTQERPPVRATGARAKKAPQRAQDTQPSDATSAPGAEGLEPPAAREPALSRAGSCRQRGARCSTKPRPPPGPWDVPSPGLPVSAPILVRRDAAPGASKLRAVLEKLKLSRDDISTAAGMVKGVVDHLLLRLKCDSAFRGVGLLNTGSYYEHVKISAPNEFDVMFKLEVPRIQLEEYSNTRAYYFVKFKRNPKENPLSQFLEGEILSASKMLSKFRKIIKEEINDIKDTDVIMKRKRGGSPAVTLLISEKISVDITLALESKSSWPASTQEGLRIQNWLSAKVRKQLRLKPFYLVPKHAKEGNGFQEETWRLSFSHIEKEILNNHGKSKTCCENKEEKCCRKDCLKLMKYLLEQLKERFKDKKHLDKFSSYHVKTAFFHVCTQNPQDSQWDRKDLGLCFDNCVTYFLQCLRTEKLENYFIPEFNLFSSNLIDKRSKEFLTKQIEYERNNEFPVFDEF
cellular cGAS activity in baculovirus-stimulated THP1-Dual cells, sequence (Q8N884 whole entry): as above
cellular cGAS activity in dsDNA-stimulated human whole blood, sequence (Q8N884 whole entry): as above

On to `C[C@H]1COCCCc2nc(c3oc4ccccc4c3n2)N2C[C@H](C[C@H]2C(=O)O)Oc2ncc(Br)cc2[C@@]2(F)CCN(C[C@@H]2C)C1=O` [Example 25], for which the IC50 in test [1] (setting [5]) is 116 nM; in test [2] (setting [6]), 110 nM; in test [3] (setting [7]), 1700 nM; in test [4] (Table 1), 7 nM. The “Ratio THP(cGAMP) IC50/ THP(vir) IC50” value in test [3] (Table 1) was determined as 16.

In the case of `C[C@H]1CN2CC[C@]1(F)c1cc(Br)cnc1O[C@H]1C[C@@H](C(=O)O)N(C1)c1nc(nc3c1oc1ccccc13)CCCCOCC2=O` [Example 28], the IC50 in test [1] (setting [5]) came to 15 nM; in test [2] (setting [6]), 47 nM; in test [3] (setting [7]), 1900 nM; in test [4] (Table 1), 7 nM. For the same compound, in test [3] (Table 1), the “Ratio THP(cGAMP) IC50/ THP(vir) IC50” value was found to be 39.

Take `C[C@H]1CCCOCc2nc(c3oc4ccccc4c3n2)N2C[C@H](C[C@H]2C(=O)O)Oc2ncc(Cl)cc2[C@@]2(F)CCN(C[C@@H]2C)C1=O` (single isomer, unassigned) [Example 09]: the IC50 in test [1] (setting [5]) amounted to 161 nM; in test [2] (setting [6]), 240 nM; in test [3] (setting [7]), 3500 nM; in test [4] (Table 1) it was 45 nM. Further, the “Ratio THP(cGAMP) IC50/ THP(vir) IC50” value in test [3] (Table 1) was found to be 15.

For the compound `C[C@H]1CN2CC[C@]1(F)c1cc(Cl)cnc1O[C@H]1C[C@@H](C(=O)O)N(C1)c1nc(nc3c1oc1ccccc13)COC(=O)CCC2=O` [Example 11, (1R,9S,11S,33S)-4-Chloro-1-fluoro-33-methyl-27,30-dioxo-8,15,26-trioxa-6,12,23,31,36-pentaazaheptacyclo[29.2.2.1^9,12.1^13,24.0^2,7.0^14,22.0^16,21]heptatriaconta-2,4,6,13(36),14(22),16(21),17,19,23-nonaene-11-carboxylic acid], the IC50 in test [1] (setting [5]) was 9 nM; in test [2] (setting [6]), 11 nM; in test [3] (setting [7]) it was greater than 10000 nM; in test [4] (Table 1) it was 2.8 nM. Besides, the “Ratio THP(cGAMP) IC50/ THP(vir) IC50” value in test [3] (Table 1) was determined as 902.

On to `C[C@@H]1COCCCc2nc(c3oc4ccccc4c3n2)N2C[C@H](C[C@H]2C(=O)O)Oc2ncc(Br)cc2[C@@]2(F)CCN(C[C@@H]2C)C1=O` [Example 26], for which the IC50 worked out at 276 nM in test [1] (setting [5]), 46 nM in test [2] (setting [6]), 3200 nM in test [3] (setting [7]) and 18 nM in test [4] (Table 1). Also, the “Ratio THP(cGAMP) IC50/ THP(vir) IC50” value in test [3] (Table 1) is given as 70.

In the case of `C[C@H]1CN2CC[C@]1(F)c1cc(Cl)cnc1O[C@H]1C[C@@H](C(=O)O)N(C1)c1nc(nc3c1oc1ccccc13)COCCCOC2=O` [Example 13, (1R,9S,11S,34S)-4-chloro-1-fluoro-34-methyl-31-oxo-8,15,26,30-tetraoxa-6,12,23,32,37-pentaaabestacyclo[30.2.2.1^9,12.1^13,24.0^14,22.0^16,21]octatriaconta-2(7),3,5,13(37),14(22),16(21),17,19,23-nonaene-11-carboxylic acid], the IC50 in test [1] (setting [5]) came out at 149 nM; in test [2] (setting [6]), 42 nM; in test [3] (setting [7]) it was 16000 nM; in test [4] (Table 1) it was 22 nM. In addition, the “Ratio THP(cGAMP) IC50/ THP(vir) IC50” value in test [3] (Table 1) is recorded as 256.

With `C[C@H]1CN2CC[C@]1(F)c1cc(Cl)cnc1O[C@H]1C[C@@H](C(=O)O)N(C1)c1nc(nc3c1oc1ccccc13)C(F)(F)CCCCC(F)(F)C2=O` [Example 06, (1R,9S,11S,34S)-4-chloro-1,25,25,30,30-pentafluoro-34-methyl-31-oxo-8,15-dioxa-6,12,23,32,37-pentaazaheptacyclo[30.2.2.1^9,12.1^13,24.0^2,7.0^14,22.0^16,21]-octatriaconta-2,4,6,13(37),14(22),16(21),17,19,23-nonaene-11-carboxylic acid], the concentration for half-maximal inhibition (IC50) in test [1] (setting [5]) was 222 nM; in test [2] (setting [6]) it was 150 nM; in test [3] (setting [7]) it was greater than 10000 nM; in test [4] (Table 1) it was 18 nM. In addition, the “Ratio THP(cGAMP) IC50/ THP(vir) IC50” value in test [3] (Table 1) was found to be 65.

In the case of `COc1ncccc1-c1cnc2c(c1)[C@@]1(F)CCN(C[C@@H]1C)C(=O)CCCOCCc1nc(c3oc4ccccc4c3n1)N1C[C@H](C[C@H]1C(=O)O)O2` [Example 20.01, (1R,9S,11S,34S)-1-fluoro-4-(2-methoxypyridin-3-yl)-34-methyl-31-oxo-8,15,27-trioxa-6,12,23,32,37-pentaazaheptacyclo[30.2.2.1^9,12.1^13,24.0^2,7.0^14,22.0^16,21]octatriaconta-2,4,6,13(37),14(22),16(21),17,19,23-nonaene-11-carboxylic acid], the IC50 in test [1] (setting [5]) is 45 nM; in test [2] (setting [6]) it was 19 nM; in test [3] (setting [7]) it was 8100 nM; in test [4] (Table 1), 18 nM. Moreover, the “Ratio THP(cGAMP) IC50/ THP(vir) IC50” value in test [3] (Table 1) is given as 419.

In the case of `C[C@H]1CN2CC[C@]1(F)c1cc(Cl)cnc1O[C@H]1C[C@@H](C(=O)O)N(C1)c1nc(nc3c1oc1ccccc13)CCCOCC2=O` [Example 37, (1R,9S,11S,33S)-4-chloro-1-fluoro-33-methyl-30-oxo-8,15,28-trioxa-6,12,23,31,36-pentaaza-heptacyclo[29.2.2.1^9,12.1^13,24.0^2,7.0^14,22.0^16,21]heptatriaconta-2,4,6,13(36),14(22),16(21),17,19,23-nonaene-11-carboxylic acid], the IC50 came to 11 nM in test [1] (setting [5]), 12 nM in test [2] (setting [6]), 11000 nM in test [3] (setting [7]) and 3 nM in test [4] (Table 1). In addition, the “Ratio THP(cGAMP) IC50/ THP(vir) IC50” value in test [3] (Table 1) was 884.

On to `C[C@H]1CN2CC[C@]1(F)c1cc(Cl)cnc1O[C@H]1C[C@@H](C(=O)O)N(C1)c1nc(nc3c1oc1ccccc13)C(F)(F)CCCOCC2=O` [Example 31], for which the half-inhibitory concentration (IC50) came to 5 nM in test [1] (setting [5]), 3 nM in test [2] (setting [6]), 7200 nM in test [3] (setting [7]) and 7 nM in test [4] (Table 1). The “Ratio THP(cGAMP) IC50/ THP(vir) IC50” value in test [3] (Table 1) amounted to 3002.

Take `CC#Cc1cnc2c(c1)[C@@]1(F)CCN(C[C@@H]1C)C(=O)COCCCCc1nc(c3oc4ccccc4c3n1)N1C[C@H](C[C@H]1C(=O)O)O2` [Example 29, (1R,9S,11S,34S)-1-fluoro-34-methyl-31-oxo-4-(prop-1-yn-1-yl)-8,15,29-trioxa-6,12,23,32,37-penta-azaheptacyclo[30.2.2.1^9,12.1^13,24.0^2,7.0^14,22.0^16,21]octatriaconta-2(7),3,5,13,16(21),17,19,22,24(37)-nonaene-11-carboxylic acid]: the IC50 in test [1] (setting [5]) is 22 nM; in test [2] (setting [6]), 57 nM; in test [3] (setting [7]), 2200 nM; in test [4] (Table 1), 14 nM. Also, the “Ratio THP(cGAMP) IC50/ THP(vir) IC50” value in test [3] (Table 1) came to 39.

As for `C[C@H]1CN2CC[C@]1(F)c1cc(Cl)cnc1O[C@H]1C[C@@H](C(=O)O)N(C1)c1nc(nc3c1oc1ccccc13)CCCCOC2=O` [Example 35, (1R,9S,11S,33S)-4-chloro-1-fluoro-33-methyl-30-oxo-8,15,29-trioxa-6,12,23,31,36-pentaazaheptacyclo[29.2.2.1^9,12.1^13,24.0^2,7.0^14,22.0^16,21]heptatriaconta-2,4,6,13(36),14(22),16(21),17,19,23-nonaene-11-carboxylic acid], the concentration for half-maximal inhibition (IC50) in test [1] (setting [5]) amounted to 409 nM; in test [2] (setting [6]) it was 830 nM.

Take `Cc1nc(N2C[C@@H](Cc3nn[nH]n3)C[C@H]2C(=O)O)c2oc3ccccc3c2n1` [Example 25]: the IC50 was greater than 9990 nM in test [1] (Table 2, compounds from WO 2020/142729); greater than 17000 nM in test [2] (Table 2, compounds from WO 2020/142729, read-out: THP1(vir) IC50); greater than 17000 nM in test [3] (Table 2, compounds from WO 2020/142729, read-out: THP1(cGAMP) IC50).

For `Cc1nc(N2C[C@@H](Cc3nn[nH]n3)C[C@H]2C(=O)O)c2oc3ccccc3c2n1` [Example No. 25 of WO 2020/142729, reference compound], the IC50 in test [2] (virus-stimulated THP1 cells, read-out: THP1(vir) IC50) stood at 17000 nM; in test [4] (Table 2, compounds from WO 2020/142729 re-tested in the applicant's assay), 55 nM.
